# US20070032529A1, “Pyrazole compounds and their use as antidiabetes agents” (Japan Tobacco Inc., priority 2005, published 2007)
# pIC50: −log10 of the molar value. Structures can show the parent of a compound that is named as a salt.
# Biological target: T1, recombinant human liver glycogen phosphorylase (Homo sapiens, UniProt P06737)
# T1 construct: made in house; host or cells: Sf9 insect cells (crude homogenate, diluted, used as the enzyme solution)
# T1 sequence (P06737 1-847): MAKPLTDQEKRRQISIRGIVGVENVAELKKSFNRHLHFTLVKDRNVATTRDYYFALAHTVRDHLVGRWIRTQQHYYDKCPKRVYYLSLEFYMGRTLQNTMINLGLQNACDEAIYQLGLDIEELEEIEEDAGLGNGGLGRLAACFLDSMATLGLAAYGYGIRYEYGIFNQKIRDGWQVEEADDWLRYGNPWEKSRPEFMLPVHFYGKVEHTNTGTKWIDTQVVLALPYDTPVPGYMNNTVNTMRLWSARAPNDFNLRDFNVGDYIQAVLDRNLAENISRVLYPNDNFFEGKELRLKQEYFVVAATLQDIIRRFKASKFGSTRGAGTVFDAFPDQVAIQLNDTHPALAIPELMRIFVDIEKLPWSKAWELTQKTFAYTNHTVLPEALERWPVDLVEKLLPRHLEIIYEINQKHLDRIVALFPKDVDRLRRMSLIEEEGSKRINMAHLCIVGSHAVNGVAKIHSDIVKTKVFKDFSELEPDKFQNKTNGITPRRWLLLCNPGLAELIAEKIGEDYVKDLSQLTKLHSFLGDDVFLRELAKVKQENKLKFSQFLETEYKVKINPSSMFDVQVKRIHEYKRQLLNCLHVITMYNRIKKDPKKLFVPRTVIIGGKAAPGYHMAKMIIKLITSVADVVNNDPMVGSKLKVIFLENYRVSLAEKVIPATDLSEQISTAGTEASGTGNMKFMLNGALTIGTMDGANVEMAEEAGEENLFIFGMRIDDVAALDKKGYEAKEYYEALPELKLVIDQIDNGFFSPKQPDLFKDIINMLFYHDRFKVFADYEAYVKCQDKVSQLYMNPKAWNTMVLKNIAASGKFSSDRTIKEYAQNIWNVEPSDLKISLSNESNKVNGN
# Test: Measuring liver glycogen phosphorylase activity (forward reaction system, NADPH absorbance at 340 nm)
# Type: biochemical
# Details: compound concentration 100 nmol (in parentheses); read-out: inhibition rate (%) at a certain concentration
# Description: [Pharmacological Test] 1. Exemplary Test (1) Method for Measuring Liver Glycogen Phosphorylase Activity
# The measurement of glycogen phosphorylase activity was carried out by a method using the forward reaction system.
# The measurement of glycogen phosphorylase activity using the forward reaction system was carried out as follows. Glucose-1-phosphate prepared from glycogen by glycogen phosphorylase was converted into glucono-δ-lactone 6-phosphate through transphosphorylation and dehydrogenation using phosphoglucomutase and glucose-6-phosphate dehydrogenase (G6PDH). NADPH generated from NADP during the dehydrogenation by G6PDH was detected.
# A homogenate of the Sf9 cells which expressed exogenously recombinant human liver glycogen phosphorylase was diluted with 100 mmol/LBES buffer solution (pH 6.8, containing 2 mmol/L EDTA) and the dilution was used as the enzyme solution of human liver glycogen phosphorylase. As the substrate, a phosphate buffer (containing 16 mmol/L KH2PO4, 24 mmol/L Na2HPO4) was used. A mixture of 8 U/mL phosphoglucomutase and 60 U/mL G6PDH was prepared in BES buffer solution. Buffer solution (containing 1.4 mmol/L NADP, 30 mmol/L MgCl2, 8 μmol/L glucose-1,6-diphosphate, 8 mg/mL glycogen, 40 mmol/LBES, 0.8 mmol/L EDTA) for reaction and a glucose solution (containing 75 mmol/L glucose, 100 mmol/LBES, 2 mmol/L EDTA) were prepared individually. The test compound was dissolved in 1% DMSO solution.
# The enzymatic reaction was begun by adding 20 μL of the recombinant human liver glycogen phosphorylase solution and 20 μL of the mixture of phosphoglucomutase and G6PDH to the mixture of 20 μL of the glucose solution, 20 μL of the substrate, 100 μL of the buffer solution for reaction and 20 μL of the test compound solution. As control, 1% DMSO solution was added instead of the test compound. The mixture without the substrate was used as blank. The absorbance at 340 nm was measured immediately after the reaction started. The absorbance at 340 nm was measured again after reacting at room temperature for 75 minutes. The enzymatic activity is a value obtained by subtracting the blank variation in absorbance over 75 minutes from the variation in absorbance over 75 minutes.
# The inhibition rate (%) of the test compound was calculated by the expression “(1-enzymatic activity of test compound/enzymatic activity of control)×100.”
# A linear equation was determined from the two concentration points with the 50% inhibition rate therebetween, and the IC50 value was calculated from the concentration at the intersection of the line with the 50% inhibition rate.
# “IC50” in the tables indicates the above-described enzyme inhibitory activity with respect to liver glycogen phosphorylase, and the activity to inhibit liver glycogen phosphorylase was represented as ++ when the IC50 value (nmol/L) was less than 100 nmol/L, as + when the IC50 value was between 100 nmol/L and 300 nmol/L. When IC50 is 300 nmol/L or more, an inhibition rate (%) at a certain concentration of the compound (I) of the present invention is shown in Tables. For example, when the inhibition rate is 20% at a concentration of 300 nmol, the rate is described as 20% (300).
row,Structure (SMILES),inhibition at 0.1 µM
1,CC(NC(=O)c1cc(NC(=O)c2cc(F)c(F)cc2Cl)[nH]n1)c1cccnc1 (stereo not shown) [Example 2-26],36.4%
2,O=C(N[C@@H]1c2ccccc2C[C@@H]1O)c1cc(NC(=O)c2cc(F)c(F)cc2Cl)[nH]n1 [Example 2-30],1.8%
3,O=C(N[C@H]1c2ccccc2C[C@H]1O)c1cc(NC(=O)c2cc(F)c(F)cc2Cl)[nH]n1 [Example 2-31],5.5%

# Now from value to molecule:
row,inhibition at 0.1 µM,Structure (SMILES)
1,43.1%,C[C@@H](NC(=O)c1cc(NC(=O)c2cc(F)c(F)cc2Cl)[nH]n1)c1ccccc1 [Example 2-20]
2,5.7%,C[C@H](NC(=O)c1cc(NC(=O)c2cc(F)c(F)cc2Cl)[nH]n1)c1ccccc1 [Example 2-21]
3,45.8%,O=C(NCc1cccc(-c2ccccc2)c1)c1cc(NC(=O)c2cc(F)c(F)cc2Cl)[nH]n1 [Example 2-29]

# Same assay, conditions: compound concentration 300 nmol (in parentheses); read-out: inhibition rate (%) at a certain concentration
row,inhibition at 0.3 µM,Structure (SMILES)
1,37.5%,CN(C(=O)c1cc(NC(=O)c2cc(F)c(F)cc2Cl)[nH]n1)c1cccc(C(=O)O)c1 [Example 2-14]
2,41.5%,COc1ccccc1NC(=O)c1cc(NC(=O)c2cc(F)c(F)cc2Cl)[nH]n1 [Example 3-27]

# Same assay, conditions: compound concentration 400 nmol (in parentheses); read-out: inhibition rate (%) at a certain concentration
row,inhibition at 0.4 µM,Structure (SMILES)
1,50%,O=C(Nc1cc(C(=O)N2CCc3ccccc3C2)n[nH]1)c1cc(F)c(F)cc1Cl [Example 3-12]

# Same assay, conditions: compound concentration 480 nmol (in parentheses); read-out: inhibition rate (%) at a certain concentration
row,inhibition at 0.48 µM,Structure (SMILES)
1,50%,O=C(NCCc1ccccc1)c1cc(NC(=O)c2cc(F)c(F)cc2Cl)[nH]n1 [Example 3-9]

# Same assay, conditions: compound concentration 490 nmol (in parentheses); read-out: inhibition rate (%) at a certain concentration
row,inhibition at 0.49 µM,Structure (SMILES)
1,50%,"CN(Cc1ccccc1)C(=O)c1cc(NC(=O)c2cc(F)c(F)cc2Cl)[nH]n1 [Example 3-1, 5-(2-chloro-4,5-difluoro-benzoylamino)-1H-pyrazole-3-carboxylic acid benzyl-methyl-amide]"

# Same assay, conditions: compound concentration 640 nmol (in parentheses); read-out: inhibition rate (%) at a certain concentration
row,inhibition at 0.64 µM,Structure (SMILES)
1,50%,O=C(Nc1ccccc1)c1cc(NC(=O)c2cc(F)c(F)cc2Cl)[nH]n1 [Example 3-3]
2,50%,O=C(N[C@@H](CO)c1ccccc1)c1cc(NC(=O)c2cc(F)c(F)cc2Cl)[nH]n1 [Example 3-22]

# Same assay, conditions: compound concentration 1000 nmol (in parentheses); read-out: inhibition rate (%) at a certain concentration
row,Structure (SMILES),inhibition at 1 µM
1,O=C(Nc1cc(C(=O)N2CCCCC2)n[nH]1)c1cc(F)c(F)cc1Cl [Example 3-5],41.1%
2,CCOC(=O)C1CCN(C(=O)c2cc(NC(=O)c3cc(F)c(F)cc3Cl)[nH]n2)CC1 [Example 3-6],42.5%
3,O=C(Nc1cc(C(=O)N2CCC(C(=O)O)CC2)n[nH]1)c1cc(F)c(F)cc1Cl [Example 3-8],11.7%
4,CN(CCc1ccccc1)C(=O)c1cc(NC(=O)c2cc(F)c(F)cc2Cl)[nH]n1 [Example 3-10],23.2%
5,O=C(NC(c1ccccc1)c1ccccc1)c1cc(NC(=O)c2cc(F)c(F)cc2Cl)[nH]n1 [Example 3-19],9.2%
6,O=C(N[C@H](CO)c1ccccc1)c1cc(NC(=O)c2cc(F)c(F)cc2Cl)[nH]n1 [Example 3-23],26.1%

# The remaining lines, values ahead:
row,inhibition at 1 µM,Structure (SMILES)
1,25.5%,COC(=O)[C@@H](NC(=O)c1cc(NC(=O)c2cc(F)c(F)cc2Cl)[nH]n1)c1ccccc1 [Example 3-13]
2,41.7%,COC(=O)[C@H](NC(=O)c1cc(NC(=O)c2cc(F)c(F)cc2Cl)[nH]n1)c1ccccc1 [Example 3-14]

# Same assay, conditions: enzyme inhibitory activity with respect to liver glycogen phosphorylase; class symbols
row,Structure (SMILES),pIC50
1,CCCCCCc1nc(C)c(CNC(=O)c2cc(NC(=O)c3cc(F)c(F)cc3Cl)[nH]n2)o1 [Example 1-163],> 7.00
2,CCCCCCc1nc(C)oc1CNC(=O)c1cc(NC(=O)c2cc(F)c(F)cc2Cl)[nH]n1 [Example 1-167],> 7.00
3,O=C(Nc1cc(C(=O)N2CCCc3ccccc32)n[nH]1)c1cc(F)c(F)cc1Cl [Example 3-15],6.52 to 7.00
4,CCCN(C(=O)c1cc(NC(=O)c2cc(F)c(F)cc2Cl)[nH]n1)c1ccccc1 [Example 3-16],> 7.00
5,CCCCN(C(=O)c1cc(NC(=O)c2cc(F)c(F)cc2Cl)[nH]n1)c1ccccc1 [Example 3-17],> 7.00
6,CCCCCN(C(=O)c1cc(NC(=O)c2cc(F)c(F)cc2Cl)[nH]n1)c1ccccc1 [Example 3-18],6.52 to 7.00
7,COc1ccccc1N(C)C(=O)c1cc(NC(=O)c2cc(F)c(F)cc2Cl)[nH]n1 [Example 3-28],6.52 to 7.00

# Further lines, results first:
row,pIC50,Structure (SMILES)
1,> 7.00,COc1ccsc1CNC(=O)c1cc(NC(=O)c2cc(F)c(F)cc2Cl)[nH]n1 [Example 1-160]
2,> 7.00,O=C(NCc1cc(Cl)c(Cl)s1)c1cc(NC(=O)c2cc(F)c(F)cc2Cl)[nH]n1 [Example 1-161]
3,> 7.00,Cc1nc(CNC(=O)c2cc(NC(=O)c3cc(F)c(F)cc3Cl)[nH]n2)c(C)o1 [Example 1-162]
4,> 7.00,COc1cscc1CNC(=O)c1cc(NC(=O)c2cc(F)c(F)cc2Cl)[nH]n1 [Example 1-164]
5,> 7.00,Cc1nc(-c2ccccc2)oc1CNC(=O)c1cc(NC(=O)c2cc(F)c(F)cc2Cl)[nH]n1 [Example 1-165]
6,> 7.00,Cc1nc(-c2ccccc2)c(CNC(=O)c2cc(NC(=O)c3cc(F)c(F)cc3Cl)[nH]n2)o1 [Example 1-166]
7,> 7.00,"O=C(NCc1nnc[nH]1)c1cc(NC(=O)c2cc(F)c(F)cc2Cl)[nH]n1 [Example 2-2-1, 5-(2-chloro-4,5-difluoro-benzoylamino)-1H-pyrazole-3-carboxylic acid (4H-[1,2,4]triazol-3-ylmethyl)-amide dihydrochloride]"
8,> 7.00,CS(=O)(=O)Nc1ccc(CNC(=O)c2cc(NC(=O)c3cc(F)c(F)cc3Cl)[nH]n2)cc1 [Example 2-16]
9,> 7.00,CC(=O)Nc1cccc(CNC(=O)c2cc(NC(=O)c3cc(F)c(F)cc3Cl)[nH]n2)c1 [Example 2-17]
10,> 7.00,CC(=O)Nc1ccc(CNC(=O)c2cc(NC(=O)c3cc(F)c(F)cc3Cl)[nH]n2)cc1 [Example 2-18]
11,> 7.00,O=C(NCc1csc(-c2ccccc2)n1)c1cc(NC(=O)c2cc(F)c(F)cc2Cl)[nH]n1 [Example 2-19]
12,> 7.00,O=C(NCc1ccc(Oc2ccccc2)nc1)c1cc(NC(=O)c2cc(F)c(F)cc2Cl)[nH]n1 [Example 2-22]
13,> 7.00,O=C(NCc1ccc(-c2ccccc2)nc1)c1cc(NC(=O)c2cc(F)c(F)cc2Cl)[nH]n1 [Example 2-32]
14,> 7.00,Cc1ccc(CNC(=O)c2cc(NC(=O)c3cc(F)c(F)cc3Cl)[nH]n2)c(=O)[nH]1 [Example 2-33]
15,> 7.00,Nc1cccc(CNC(=O)c2cc(NC(=O)c3cc(F)c(F)cc3Cl)[nH]n2)c1 [Example 3-30]
16,> 7.00,CN(C)c1cccc(CNC(=O)c2cc(NC(=O)c3cc(F)c(F)cc3Cl)[nH]n2)c1 [Example 3-34]
17,> 7.00,O=C(NCc1ccccc1Cl)c1cc(NC(=O)c2cc(F)c(F)cc2Cl)[nH]n1 [Example 3-36]
18,> 7.00,O=C(NCc1cccc(Cl)c1)c1cc(NC(=O)c2cc(F)c(F)cc2Cl)[nH]n1 [Example 3-37]
